Measured values published in US7309691B2, “Combined pharmaceutical preparation containing LHRH-analogous substances and anti estrogens for treating gynaecological disorders” (Achering Aktiengesellschaft, priority 1996, dated 2007).

Experiments:
[1] = women; literature; cited from earlier work
[2] = tested on: experimentally produced endometriosis (cystic endometriosis foci); assay: Experimentally produced endometriosis in the rat (transplanted endometrium fragments)
Procedure: Fragments of endometrium were transplanted into different regions of the abdominal cavity of 60 animals.
Four weeks later the development of the endometriosis (cystic endometriosis foci) was examined.
The animals were then treated for 4 weeks with the LHRH antagonists Antide (0.5 mg/animal every 3 days s.c.) and Raloxifen (3 mg/animal per day p.o.) in each case alone, or in a combination of the two compounds. At the end the size of the endometriosis foci before the beginning of the treatment was compared with the values after 4 weeks' treatment.
60 animals received the LHRH antagonist Antide and Raloxifen in parallel for the first 2 weeks and Raloxifen alone for the following 2 weeks. The doses were selected as in 1.1.
60 animals received the LHRH antagonist Antide for 2 weeks. On completion of the LHRH administration Raloxifen was then administered for 2 weeks.
Analogously to Example 1, treatment with LHRH antagonists Ac-D-Nal-D-Cpa-D-Pal-Ser-Tyr-D-Cit-Leu-Lys(Mor)-D-Ala-NH2 and Droloxifen was carried out on 40 animals.

Row | osteoclast activity ([2]; rat, in vivo) | Molecule | side effects of treatment [1] | endogenous oestrogen levels ([2]; 1.1: 4 weeks' treatment, alone) | regression of the endometriosis foci (size before vs after treatment) ([2]; 1.1: 4 weeks' treatment, Antide 0.5 mg/animal every 3 days s.c., Raloxifen 3 mg/animal per day p.o., each alone or simultaneous combination)
1 | – | C#C[C@]1(O)CC[C@H]2[C@@H]3CCC4=Cc5oncc5C[C@]4(C)[C@H]3CC[C@@]21C [danazol] | androgenisation phenomena | – | –
2 | increase | Antide | – | reduction in endogenous oestrogen levels corresponding to an ovariectomy | complete regression
